# Data published in patent publication US20230093861A1, “RAPAMYCIN ANALOGS AS MTOR INHIBITORS” (Revolution Medicines, Inc., priority 2017, published 2023).
# Read-outs that look alike come from different tables or passages of the source.
# Columns and labels:
# P-P70S6K (T389) = assay: Cell based AlphaLISA assay, inhibition of P-P70S6K (T389) (mTORC1 substrate phosphorylation) in MDA-MB-468 cells; settings: Homo sapiens, 4 h, two to four hours at 37° C.
# Outline: (§1)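 Phosphoprotein levels were quantified with AlphaLISA SureFire Ultra kits after compound treatment. Incubation ended by removing assay buffer and lysing cells, and the Alpha signal was read in duplicate. IC50 came from normalized concentration-response regression with control-based normalization.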
# P-4E-BP1 (T37/46) = assay: Cell based AlphaLISA assay, inhibition of P-4E-BP1 (T37/46) (mTORC1 substrate phosphorylation) in MDA-MB-468 cells; settings: Homo sapiens, MDA-MB-468, 4 h, two to four hours at 37° C.
# Outline: as §1
# P-Akt (S473) = assay: Cell based AlphaLISA assay, inhibition of P-Akt (S473) (mTORC2 substrate phosphorylation) in MDA-MB-468 cells; settings: Homo sapiens, MDA-MB-468, 4 h, two to four hours at 37° C.
# Outline: as §1
# [1] = AlphaLISA, read-out: pIC50 for Inhibition of mTORC1 and mTORC2 Substrate Phosphorylation, P-P70S6K-(T389) (converted)
# [2] = AlphaLISA, read-out: pIC50 for Inhibition of mTORC1 and mTORC2 Substrate Phosphorylation, P-4E-BP1-(T37/46) (converted)
# [3] = AlphaLISA, read-out: pIC50 for Inhibition of mTORC1 and mTORC2 Substrate Phosphorylation, p-AKT 1/2/3 -(S473) (converted)
compound,measurement,setting,value
CO[C@H]1C[C@@H]2CC[C@@H](C)[C@@](O)(O2)C(=O)C(=O)N2CCCC[C@H]2C(=O)O[C@H]([C@H](C)C[C@@H]2CC[C@H](n3cc(CCCC(=O)NCCOCCOCCOCCC(=O)NCCOCCOCCOCCOCCC(=O)NCCCCn4nc(-c5cc6cc(O)ccc6[nH]5)c5c(N)ncnc54)nn3)[C@H](OC)C2)CC(=O)[C@H](C)/C=C(\C)[C@@H](O)[C@@H](OC)C(=O)[C@H](C)C[C@H](C)/C=C/C=C/C=C/1C [Example 133],IC50,P-P70S6K (T389); [1],0.001 to 0.01 µM
same,IC50,P-4E-BP1 (T37/46); [2],0.00316 to 0.0316 µM
same,IC50,P-Akt (S473); [3],0.0316 to 1 µM
CO[C@H]1C[C@@H]2CC[C@@H](C)[C@@](O)(O2)C(=O)C(=O)N2CCCC[C@H]2C(=O)O[C@H]([C@H](C)C[C@@H]2CC[C@H](n3cc(COCCOCCOCCOCCOCCOCCOCCOCCOCCOCCC(=O)NCCCCn4nc(-c5cc6cc(O)ccc6[nH]5)c5c(N)ncnc54)nn3)[C@H](OC)C2)CC(=O)[C@H](C)/C=C(\C)[C@@H](O)[C@@H](OC)C(=O)[C@H](C)C[C@H](C)/C=C/C=C/C=C/1C [Example 196],IC50,P-P70S6K (T389); [1],0.001 to 0.01 µM
same,IC50,P-4E-BP1 (T37/46); [2],0.00316 to 0.0316 µM
same,IC50,P-Akt (S473); [3],0.0316 to 1 µM
CO[C@H]1C[C@@H]2CC[C@@H](C)[C@@](O)(O2)C(=O)C(=O)N2CCCC[C@H]2C(=O)O[C@H]([C@H](C)C[C@@H]2CC[C@H](n3cc(CCCC(=O)NCCOCCOCCOCCC(=O)NCCOCCOCCC(=O)NCCCCn4nc(-c5ccc6oc(N)nc6c5)c5c(N)ncnc54)nn3)[C@H](OC)C2)CC(=O)[C@H](C)/C=C(\C)[C@@H](O)[C@@H](OC)C(=O)[C@H](C)C[C@H](C)/C=C/C=C/C=C/1C [Example 128],IC50,P-P70S6K (T389); [1],0.001 to 0.01 µM
same,IC50,P-4E-BP1 (T37/46); [2],0.00316 to 0.0316 µM
same,IC50,P-Akt (S473); [3],0.0316 to 1 µM
CO[C@H]1C[C@@H]2CC[C@@H](C)[C@@](O)(O2)C(=O)C(=O)N2CCCC[C@H]2C(=O)O[C@H]([C@H](C)C[C@@H]2CC[C@@H](O)[C@H](OC)C2)C[C@@H](O)[C@H](C)/C=C(\C)[C@@H](O)[C@@H](OC)C(=NOCc2cn(CCOCCOCCOCCOCCOCCOCCOCCOCCC(=O)NCCCCn3nc(-c4cc5cc(O)ccc5[nH]4)c4c(N)ncnc43)nn2)[C@H](C)C[C@H](C)/C=C/C=C/C=C/1C [Example 94],IC50,P-P70S6K (T389); [1],0.001 to 0.01 µM
same,IC50,P-4E-BP1 (T37/46); [2],0.00316 to 0.0316 µM
same,IC50,P-Akt (S473); [3],> 1 µM
COc1ccc(-c2ccc3ncc4c(c3c2)n(-c2ccc(N3CCN(c5ncc(CNC(=O)CCOCCOCCOCCOCCOCCOCCn6cc(CCCCO[C@@H]7CC[C@@H](C[C@@H](C)[C@@H]8CC(=O)[C@H](C)/C=C(\C)[C@@H](O)[C@@H](OC)C(=O)[C@H](C)C[C@H](C)/C=C/C=C/C=C(\C)[C@@H](OC)C[C@@H]9CC[C@@H](C)[C@@](O)(O9)C(=O)C(=O)N9CCCC[C@H]9C(=O)O8)C[C@H]7OC)nn6)cn5)CC3)c(C(F)(F)F)c2)c(=O)n4C)cn1 [Example 66],IC50,P-P70S6K (T389); [1],< 0.001 µM
same,IC50,P-4E-BP1 (T37/46); [2],< 0.00316 µM
same,IC50,P-Akt (S473); [3],< 0.00316 µM
CO[C@H]1C[C@@H]2CC[C@@H](C)[C@@](O)(O2)C(=O)C(=O)N2CCCC[C@H]2C(=O)O[C@H]([C@H](C)C[C@@H]2CC[C@@H](OCCCCc3cn(CCOCCOCCOCCNC(=O)CCCC(=O)NCCCCn4nc(-c5ccc6oc(N)nc6c5)c5c(N)ncnc54)nn3)[C@H](OC)C2)CC(=O)[C@H](C)/C=C(\C)[C@@H](O)[C@@H](OC)C(=O)[C@H](C)C[C@H](C)/C=C/C=C/C=C/1C [Example 100],IC50,P-P70S6K (T389); [1],< 0.001 µM
same,IC50,P-4E-BP1 (T37/46); [2],0.0316 to 1 µM
same,IC50,P-Akt (S473); [3],0.00316 to 0.0316 µM
CO[C@H]1C[C@@H]2CC[C@@H](C)[C@@](O)(O2)C(=O)C(=O)N2CCCC[C@H]2C(=O)O[C@H]([C@H](C)C[C@@H]2CC[C@H](n3cc(-c4cnc(N5CCN(c6ncc(C(=O)NCCOCCC(=O)NCCCCn7nc(-c8ccc9oc(N)nc9c8)c8c(N)ncnc87)cn6)CC5)nc4)nn3)[C@H](OC)C2)CC(=O)[C@H](C)/C=C(\C)[C@@H](O)[C@@H](OC)C(=O)[C@H](C)C[C@H](C)/C=C/C=C/C=C/1C [Example 109],IC50,P-P70S6K (T389); [1],< 0.001 µM
same,IC50,P-4E-BP1 (T37/46); [2],> 1 µM
same,IC50,P-Akt (S473); [3],> 1 µM
CO[C@H]1C[C@@H]2CC[C@@H](C)[C@@](O)(O2)C(=O)C(=O)N2CCCC[C@H]2C(=O)O[C@H]([C@H](C)C[C@@H]2CC[C@@H](OCCCCc3cn(CCOCCOCCOCCOCCOCCOCCC(=O)NCCCCn4ncc5c(N)ncnc54)nn3)[C@H](OC)C2)CC(=O)[C@H](C)/C=C(\C)[C@@H](O)[C@@H](OC)C(=O)[C@H](C)C[C@H](C)/C=C/C=C/C=C/1C [Example 6],IC50,P-P70S6K (T389); [1],< 0.001 µM
same,IC50,P-4E-BP1 (T37/46); [2],> 1 µM
same,IC50,P-Akt (S473); [3],> 1 µM
COC(=O)NC1C[C@@H]2CC[C@@H](C)[C@@](O)(O2)C(=O)C(=O)N2CCCC[C@H]2C(=O)O[C@H]([C@H](C)C[C@@H]2CC[C@@H](OCCCCc3cn(CCOCCOCCOCCOCCOCCOCCC(=O)NCCCCn4nc(-c5ccc6oc(N)nc6c5)c5c(N)ncnc54)nn3)[C@H](OC)C2)CC(=O)[C@H](C)/C=C(\C)[C@@H](O)[C@@H](OC)C(=O)[C@H](C)C[C@H](C)/C=C/C=C/C=C/1C (stereo partly drawn) [Example 39],IC50,P-P70S6K (T389); [1],0.001 to 0.01 µM
same,IC50,P-4E-BP1 (T37/46); [2],0.0316 to 1 µM
same,IC50,P-Akt (S473); [3],0.0316 to 1 µM
CO[C@H]1C[C@@H]2CC[C@@H](C)[C@@](O)(O2)C(=O)C(=O)N2CCCC[C@H]2C(=O)O[C@H]([C@H](C)C[C@@H]2CC[C@H](n3cc(COC(=O)NCCOCCOCCOCCC(=O)NCCOCCOCCC(=O)NCCCCn4nc(-c5cc6cc(O)ccc6[nH]5)c5c(N)ncnc54)nn3)[C@H](OC)C2)C[C@@H](OC)[C@H](C)/C=C(\C)[C@@H](O)[C@@H](OC)C(=O)[C@H](C)C[C@H](C)/C=C/C=C/C=C/1C [Example 144],IC50,P-P70S6K (T389); [1],0.01 to 1 µM
same,IC50,P-4E-BP1 (T37/46); [2],> 1 µM
same,IC50,P-Akt (S473); [3],> 1 µM
CO/N=C1/C[C@@H]([C@H](C)C[C@@H]2CC[C@H](n3cc(CCCC(=O)NCCOCCOCCOCCC(=O)NCCOCCOCCOCCC(=O)NCCCCn4nc(-c5ccc6oc(N)nc6c5)c5c(N)ncnc54)nn3)[C@H](OC)C2)OC(=O)[C@@H]2CCCCN2C(=O)C(=O)[C@]2(O)O[C@@H](CC[C@H]2C)C[C@H](OC)/C(C)=C/C=C/C=C/[C@@H](C)C[C@@H](C)C(=O)[C@H](OC)[C@H](O)/C(C)=C/[C@H]1C [Example 171],IC50,P-P70S6K (T389); [1],0.01 to 1 µM
same,IC50,P-4E-BP1 (T37/46); [2],0.0316 to 1 µM
same,IC50,P-Akt (S473); [3],> 1 µM
CO[C@H]1C[C@@H]2CC[C@@H](C)[C@@](O)(O2)C(=O)C(=O)N2CCCC[C@H]2C(=O)O[C@H]([C@H](C)C[C@@H]2CC[C@@H](OCCCCc3cn(CCOCCOCCOCCNC(=O)CCCCC(=O)NCCCCn4nc(-c5ccc6oc(N)nc6c5)c5c(N)ncnc54)nn3)[C@H](OC)C2)CC(=O)[C@H](C)/C=C(\C)[C@@H](O)[C@@H](OC)C(=O)[C@H](C)C[C@H](C)/C=C/C=C/C=C/1C [Example 102],IC50,P-P70S6K (T389); [1],< 0.001 µM
same,IC50,P-4E-BP1 (T37/46); [2],0.00316 to 0.0316 µM
same,IC50,P-Akt (S473); [3],0.00316 to 0.0316 µM
CO[C@H]1C[C@@H]2CC[C@@H](C)[C@@](O)(O2)C(=O)C(=O)N2CCCC[C@H]2C(=O)O[C@H]([C@H](C)C[C@@H]2CC[C@H](n3cc(COC(=O)NCCOCCOCCOCCC(=O)NCCOCCOCCOCCC(=O)NCCCCn4nc(-c5ccc6oc(N)nc6c5)c5c(N)ncnc54)nn3)[C@H](OC)C2)C/C(=N/OC(C)(C)C)[C@H](C)/C=C(\C)[C@@H](O)[C@@H](OC)C(=O)[C@H](C)C[C@H](C)/C=C/C=C/C=C/1C [Example 160],IC50,P-P70S6K (T389); [1],0.01 to 1 µM
same,IC50,P-4E-BP1 (T37/46); [2],> 1 µM
same,IC50,P-Akt (S473); [3],0.0316 to 1 µM
COc1ccc(-c2ccc3ncc4c(c3c2)n(-c2ccc(N3CCN(C(=O)CCOCCOCCOCCOCCOCCOCCn5cc(CON=C6[C@H](C)C[C@H](C)/C=C/C=C/C=C(\C)[C@@H](OC)C[C@@H]7CC[C@@H](C)[C@@](O)(O7)C(=O)C(=O)N7CCCC[C@H]7C(=O)O[C@H]([C@H](C)C[C@@H]7CC[C@@H](O)[C@H](OC)C7)C[C@@H](O)[C@H](C)/C=C(\C)[C@@H](O)[C@H]6OC)nn5)CC3)c(C(F)(F)F)c2)c(=O)n4C)cn1 [Example 52],IC50,P-P70S6K (T389); [1],< 0.001 µM
same,IC50,P-4E-BP1 (T37/46); [2],0.00316 to 0.0316 µM
same,IC50,P-Akt (S473); [3],0.00316 to 0.0316 µM
CO[C@H]1C[C@@H]2CC[C@@H](C)[C@@](O)(O2)C(=O)C(=O)N2CCCC[C@H]2C(=O)O[C@H]([C@H](C)C[C@@H]2CC[C@@H](OCCCCc3cn(CCOCCOCCOCCOCCOCCOCCC(=O)NCCCCn4nc(-c5cnc6[nH]ccc6c5)c5c(N)ncnc54)nn3)[C@H](OC)C2)C[C@@H](OC)[C@H](C)/C=C(\C)[C@@H](O)[C@@H](OC)C(=O)[C@H](C)C[C@H](C)/C=C/C=C/C=C/1C [Example 70],IC50,P-P70S6K (T389); [1],0.001 to 0.01 µM
same,IC50,P-4E-BP1 (T37/46); [2],> 1 µM
same,IC50,P-Akt (S473); [3],> 1 µM
"CC(C)n1nc(-c2ccc3oc(N)nc3c2)c2c(N)ncnc21 [MLN-128, reference compound]",IC50,"P-P70S6K (T389); AlphaLisa SureFire Ultra, read-out: IC50 for Inhibition of mTORC1 and mTORC2 Substrate Phosphorylation, p-P70S6K-(T389)",0.0014 µM
same,IC50,"P-4E-BP1 (T37/46); AlphaLisa SureFire Ultra, read-out: IC50 for Inhibition of mTORC1 and mTORC2 Substrate Phosphorylation, p-4E-BP1-(T37/46)",0.016 µM
same,IC50,"P-Akt (S473); AlphaLisa SureFire Ultra, read-out: IC50 for Inhibition of mTORC1 and mTORC2 Substrate Phosphorylation, p-AKT1/2/3-(S473)",0.0037 µM
